pEC50: −log10 of the molar value.
Experiments:
TRPML1 = TRPML1 (Homo sapiens, UniProt Q9GZU1); test: Calcium flux in HEK293 overexpressing TRPML1 plasma membrane variant (FLIPR, Calcium 6 dye); type: cell-based; conditions: HEK293/TRPML1-PM clone A5 cells; 4-parameter logistic fit; read-out: TRPML1 calcium flux (FLIPR) dose response: EC50
In short: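 HEK293 clone expressing plasma-membrane-targeted TRPML1 (N- and C-terminal dileucine motifs deleted), loaded with Calcium 6 dye for 2 h at 37 °C in HBSS/20 mM HEPES pH 7.4. Fluorescence recorded 10 s baseline then 170 s after compound addition. Max-minus-min response over baseline fitted by 4-parameter logistic for EC50.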

TFEB = TFEB translocation assay in HeLa cells (nuclear to cytoplasmic TFEB ratio, high-content imaging); type: cell-based; conditions: Homo sapiens, 1.5 h, 90 mins incubation at 37° C., ratio of nuclear to cytoplasmic TFEB
Protocol: Example B2. TFEB Translocation Assay
Rabbit TFEB antibody, Cell Signaling Technology #4240S
PFA 16% MeOH-free, Election Microscopy Sciences #50-980-487
HCS CellMask Deep Red, ThermoFisher Scientific #H32721
Plates: Perkin Elmer Phenoplate #605730 black optically clear, tissue culture treated 384-well plate
Example B2.2 Method, Day 1: Cells Seeded in 384WP
Cells were seeded in the afternoon. The outer one row of the plate was not used to avoid outer well edge effects.
HeLa cells were detached using trypsin, and the cells were counted using a cell counter.
4000 HeLa cells were seeded per well in […] growth media (DMEM with 10% FBS, 1 mM sodium pyruvate and Pen-Strep).
Example B2.3 Method, Day 2: Assay with TRPML1 Compounds+Staining
Compounds were added to cells using a Tecan D300e dispenser.
Cells were incubated for 90 mins at 37° C. with the compounds (compound range: 80 nM-[…] (2× step dilution—8 dilution steps, 3 replicates per condition)
The cells were fixed by adding 16.5 μL of 16% PFA (4% final) and incubating for 15 min at room temperature.
The cells were washed with 3× in PBS-TX (PBS+0.1% Triton X-100)−1×100 μL followed by 2×50 μL.
The cells were blocked and permeabilized in 30 μL of blocking buffer (PBS-TX+5% goat serum) for 1 h.
The cells were incubated with TFEB antibody (1:200, CST 4240S) in 30 μL blocking buffer overnight at 4° C. The plates were kept damp to avoid evaporation.
Example B2.4 Method, Day 3: Staining+Imaging
The cells were washed 3× in PBS-TX—3×100 μL with a Biotek EL406 washer.
The cells were incubated with Goat anti-Rb Alexa-Fluor 488 (1:2000), cell mask (1:10,000) and Hoechst (1:10,000) in 30 μL blocking buffer for 1 h at room temperature. The solution was dispensed using a 5 μL peristaltic cassette (EL406).
The cells were washed 3× in PBS-TX—3×100 μL with a EL406 washer, then […] PBS was dispensed using a 5 μL peristaltic cassette (EL406).
The cells were imaged on an Operetta CLS High-content imaging system using a 20× water immersion objective (NA 1.0) the same day.
Image analysis was performed using Harmony V4.9 (Perkin Elmer). Briefly, nuclei were segmented from background-corrected images using Hoechst intensity, and cell body segmented using HCS CellMask DeepRed. A sliding parabola filter was applied to the AlexaFluor 488 channel (TFEB), before sum pixel intensity in the nuclear and cytoplasmic regions was calculated. A ratio of nuclear to cytoplasmic TFEB was used to define TFEB translocation from the cytosolic to nuclear compartment. The EC50 values derived by fitting the data to a sigmoidal dose response curve using Prism 9 (Graphpad).

TRPML1, sequence (Q9GZU1 17-572 limits assumed): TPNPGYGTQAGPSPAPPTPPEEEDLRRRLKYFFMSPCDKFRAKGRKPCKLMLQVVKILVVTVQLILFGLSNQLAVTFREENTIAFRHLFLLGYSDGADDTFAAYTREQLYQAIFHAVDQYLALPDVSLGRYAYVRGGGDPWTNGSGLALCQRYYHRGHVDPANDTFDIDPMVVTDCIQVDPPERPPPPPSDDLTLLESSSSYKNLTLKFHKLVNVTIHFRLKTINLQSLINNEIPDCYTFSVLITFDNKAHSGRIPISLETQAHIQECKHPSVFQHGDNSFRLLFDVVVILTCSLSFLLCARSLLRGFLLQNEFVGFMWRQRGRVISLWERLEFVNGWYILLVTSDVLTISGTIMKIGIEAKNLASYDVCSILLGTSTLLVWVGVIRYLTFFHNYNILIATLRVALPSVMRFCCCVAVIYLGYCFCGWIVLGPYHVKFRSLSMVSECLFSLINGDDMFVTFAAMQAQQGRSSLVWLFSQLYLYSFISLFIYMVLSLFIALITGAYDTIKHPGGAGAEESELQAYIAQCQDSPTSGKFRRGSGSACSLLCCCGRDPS

Row | Compound | pEC50 (TRPML1) | pEC50 (TFEB) | pEC50 (TFEB; HeLa)
1 | CN(c1ccc(C(F)(F)F)cc1NS(=O)(=O)c1ccc(S(=O)(=O)N(C)C)cc1)C1CCCCC1 [Compound 110, N1-(2-(cyclohexyl(methyl)amino)-5-(trifluoromethyl)phenyl)-N4,N4-dimethylbenzene-1,4-disulfonamide] | 6.59 | 6.61 | –
2 | CN(c1ccccc1NS(=O)(=O)c1ccc(S(=O)(=O)N(C)C)cc1)C1CCOC(C)(C)C1 (stereo not shown) [Compound 111, N1-(2-((2,2-dimethyltetrahydro-2H-pyran-4-yl)(methyl)amino)phenyl)-N4,N4-dimethylbenzene-1,4-disulfonamide] | 6.09 | – | 5.48
3 | CN(c1ccccc1NS(=O)(=O)c1ccc(S(=O)(=O)N(C)C)cc1)C12CC(C)(C1)C2 [Compound 115, N1,N1-dimethyl-N4-(2-(methyl(3-methylbicyclo[1.1.1]pentan-1-yl)amino)phenyl) benzene-1,4-disulfonamide] | 5.96 | – | 6.12
4 | Cc1ccc(N(C)C2CCCCC2)c(NS(=O)(=O)c2ccc(S(=O)(=O)N(C)C)cc2)c1 [Compound 117, N1-(2-(cyclohexyl(methyl)amino)-5-methylphenyl)-N4,N4-dimethylbenzene-1,4-disulfonamide] | 6.45 | – | 7.08
5 | CN(c1ccccc1NS(=O)(=O)c1ccc(S(=O)(=O)N(C)C)cc1)C1CCCCC1 [Compound 118, N1-(2-(cyclohexyl(methyl)amino)phenyl)-N4,N4-dimethylbenzene-1,4-disulfonamide] | 6.56 | – | 6.28
